Patent US20160113932A1, “TREATMENT OF CANCERS USING PI3 KINASE ISOFORM MODULATORS” (INFINITY PHARMACEUTICALS, INC., priority 2013, published 2016)
Read-outs that look alike come from different tables or passages of the source. Marks after values point to notes of the source that are not given here.

Columns and labels:
[1] = tested on: PI3K-δ specific basophil activation; test: Anti-fCER1 BAT: PI3K-δ specific basophil activation in human whole blood; type: cell-based; conditions: read-out: Anti-fCER1 BAT (delta) EC50
[2] = Plasma protein binding in vitro, monkey; type: in vitro ADME; conditions: all concentrations tested
[3] = tested on: advanced hematologic malignancies; test: Phase 1 dose-escalation study in advanced hematologic malignancies: clinical response; type: in vivo, human
[4] = tested on: CD63 expression on the surface of basophils; test: Basophil activation assay in whole blood of oncology patients (PI3K inhibition); type: in vivo, human; conditions: from PK/PD in patients
Description: PK and PD markers were evaluated after the first dose (e.g., 8 mg BID) and at steady state. PD activity (PI3K inhibition) in whole blood was evaluated using a basophil activation assay which measured reduction in CD63 expression on the surface of basophils following ex vivo stimulation.

[5] = CLL/SLL, 16 treated, 11 evaluable
[6] = T-Cell Lymphoma, 7 treated, 6 evaluable

SMILES: C[C@H](Nc1ncnc2[nH]cnc12)c1cc2cccc(Cl)c2c(=O)n1-c1ccccc1 [Compound 292]
- EC50 [1]: 10 to 100 nM
- percent free in plasma compared with human plasma [2]: consistently higher
- responders responding by first assessment (within about 2 months) ([3]; B cell lymphoma, 16 out of 18 responders): 89%
- Best Observed Response: CR [3, 5]: 0 n
- Best Observed Response: PR [3, 5]: 6 n
- Time to Response, Median (range) [3, 5]: 2.9 (1.8, 5.6) Months
- Best Observed Response: SD ([3]; CLL/SLL, 16 treated, 11 evaluable, four nodal responses): 4 ^c n
- Best Observed Response: CR ([3]; CTCL, T/E 10/4): 0 n
- Best Observed Response: SD ([3]; CTCL, T/E 10/4): 2 n
- Median Time to Response (range) ([3]; CTCL, T/E 10/4): 1.7 (—) ^ Months
- Best Observed Response: PR ([3]; HL, 3 treated, 2 evaluable): 0 n
- Best Observed Response: SD ([3]; HL, 3 treated, 2 evaluable): 0 n
- Time to Response, Median (range) ([3]; HL, 3 treated, 2 evaluable): 1.7 (1.7, 1.7) Months
- Best Observed Response: CR ([3]; HL, T/E 3/3 (Table 16)): 1 (33) n(%)
- Best Observed Response: Overall ([3]; HL, T/E 3/3 (Table 16)): 1 (33) n(%)
- Best Observed Response: PD ([3]; HL, T/E 3/3 (Table 16)): 1 (33) n(%)
- Best Observed Response: PR ([3]; HL, T/E 3/3 (Table 16)): 0 n(%)
- Best Observed Response: SD ([3]; HL, T/E 3/3 (Table 16)): 1 (33) n(%)
- Median Time to Rsp (Range) ([3]; HL, T/E 3/3 (Table 16)): 1.7 Months
- Best Observed Response: CR ([3]; MCL, 4 treated, 3 evaluable): 0 n
- Best Observed Response: PR ([3]; MCL, 4 treated, 3 evaluable): 2 n
- Best Observed Response: SD ([3]; MCL, 4 treated, 3 evaluable): 0 n
- Time to Response, Median (range) ([3]; MCL, 4 treated, 3 evaluable): 1.9 (1.9, 1.9) Months
- responses ([3]; MCL, 11 evaluable patients, 8, 15 and 25 mg BID): 1/1
- Best Observed Response: CR ([3]; MCL, T/E 9/6 (Table 16)): 1 (17) n(%)
- Best Observed Response: Overall ([3]; MCL, T/E 9/6 (Table 16)): 4 (67) n(%)
- Best Observed Response: PD ([3]; MCL, T/E 9/6 (Table 16)): 1 (17) n(%)
- Best Observed Response: PR ([3]; MCL, T/E 9/6 (Table 16)): 3 (50) n(%)
- Best Observed Response: SD ([3]; MCL, T/E 9/6 (Table 16)): 1 (17) n(%)
- Median Time to Rsp (Range) ([3]; MCL, T/E 9/6 (Table 16)): 1.8 (1.6-1.9) Months
- Best Observed Response: CR ([3]; MM, 3 treated, 3 evaluable): 0 n
- Best Observed Response: PD ([3]; MM, 3 treated, 3 evaluable): 2 n
- Best Observed Response: PR ([3]; MM, 3 treated, 3 evaluable): 0 n
- Best Observed Response: PD ([3]; PTCL, T/E 7/5): 3 n
- Best Observed Response: SD ([3]; PTCL, T/E 7/5): 0 n
- Median Time to Response (range) ([3]; PTCL, T/E 7/5): 2.3 (1.9-2.7) Months
- patients with at least 50% tumor response ([3]; T cell lymphoma (2 PTCL and 1 CTCL), CT scans): 33 % of the patients
- Best Observed Response: PD [3, 6]: 3 n
- Time to Response, Median (range) [3, 6]: 2.4 (1.8, 3.1) Months
- Best Observed Response: PD ([3]; TCL Total, T/E 17/9 (Table 15)): 4 n
- Best Observed Response: PR ([3]; TCL Total, T/E 17/9 (Table 15)): 2 n
- Best Observed Response: SD ([3]; TCL Total, T/E 17/9 (Table 15)): 2 n
- Median Time to Response (range) ([3]; TCL Total, T/E 17/9 (Table 15)): 1.9 (1.7-2.7) Months
- Best Observed Response: CR ([3]; aNHL, 5 treated, 3 evaluable): 0 n
- Best Observed Response: PD ([3]; aNHL, 5 treated, 3 evaluable): 2 n
- Best Observed Response: PR ([3]; aNHL, 5 treated, 3 evaluable): 0 n
- Best Observed Response: CR ([3]; aNHL, T/E 13/10 (Table 16)): 0 n(%)
- Best Observed Response: Overall ([3]; aNHL, T/E 13/10 (Table 16)): 0 n(%)
- Best Observed Response: PD ([3]; aNHL, T/E 13/10 (Table 16)): 6 (60) n(%)
- Best Observed Response: PR ([3]; aNHL, T/E 13/10 (Table 16)): 0 n(%)
- Best Observed Response: SD ([3]; aNHL, T/E 13/10 (Table 16)): 4 (40) n(%)
- Best Observed Response: PR ([3]; iNHL, 17 treated, 13 evaluable): 7 n
- Time to Response, Median (range) ([3]; iNHL, 17 treated, 13 evaluable): 1.8 (1.7, 2.8) Months
- Best Observed Response: CR ([3]; iNHL, T/E 26/19 (Table 16)): 3 (16) n(%)
- Best Observed Response: MR (Minor Response for Waldenstrom's) ([3]; iNHL, T/E 26/19 (Table 16)): 1 (5) n(%)
- Best Observed Response: Overall ([3]; iNHL, T/E 26/19 (Table 16)): 13 (68) n(%)
- Best Observed Response: PD ([3]; iNHL, T/E 26/19 (Table 16)): 2 (11) n(%)
- Best Observed Response: PR ([3]; iNHL, T/E 26/19 (Table 16)): 10 (53) n(%)
- Best Observed Response: SD ([3]; iNHL, T/E 26/19 (Table 16)): 3 (16) n(%)
- Median Time to Rsp (Range) ([3]; iNHL, T/E 26/19 (Table 16)): 1.8 (1.7-4.1) Months
- dose achieving complete inhibition of PI3K-δ [4]: ≥ 15 mg BID
- doses that increasingly suppress PI3K-γ [4]: ≥ 25 mg BID
- Any AE (25 mg BID (n = 34)): 27
- Any AE, Grade 3 (25 mg BID (n = 34)): 7
- Any AE, Grade 4 (25 mg BID (n = 34)): 5
- New Grade 3 ALT (25 mg BID (n = 34)): 3
- New Grade 3 ANC (25 mg BID (n = 34)): 2
- New Grade 4 ANC (25 mg BID (n = 34)): 4
- Related AE (25 mg BID (n = 34)): 18
- Related Grade 3 AE (25 mg BID (n = 34)): 4/4
- Related Grade 4 AE (25 mg BID (n = 34)): 4/4
- new Grade >3 neutropenia (20 patients, 8-50 mg BID): 6 n
- patients with AEs Grade >3 (20 patients, 8-50 mg BID): 7 patients
- patients with adverse events (AEs) (20 patients, 8-50 mg BID): 13 patients
- dose limiting toxicity observed to date (20 patients, 15 mg dose cohort): Grade 4 neutropenia
- discontinuations due to treatment related AEs (55 patients): three
- DLTs (55 patients, 8-75 mg BID): Grade 4 neutropenia (15 mg BID) and Grade 3 cellulitis (wound infection, 75 mg BID)
- dose-related trends in related Grade 3 or Grade 4 AEs (55 patients, 8-75 mg BID): No dose-related trends
- Any AE (Safety Population (n = 55)): 46
- Any AE, Grade 3 (Safety Population (n = 55)): 18
- Any AE, Grade 4 (Safety Population (n = 55)): 8
- New Grade 3 ALT (Safety Population (n = 55)): 5
- New Grade 3 ANC (Safety Population (n = 55)): 10
- New Grade 4 ANC (Safety Population (n = 55)): 5
- Related AE (Safety Population (n = 55)): 31
- Related Grade 3 AE (Safety Population (n = 55)): 14
- Related Grade 4 AE (Safety Population (n = 55)): 6
- Deaths on Study (Safety Population (n = 55), all due to disease progression): 3 n
